Measured values reported in patent publication US8318928B2, “Fused imidazole carboxamides as TRPV3 modulators” (Glenmark Pharmaceuticals, S.A., priority 2008, dated 2012).

Biological target: T1, Human TRPV3 expressing CHO cells (Homo sapiens, UniProt Q8NET8)
T1 construct: expressed in transfected cells; host or cells: CHO cells, kept under G-418 selection
T1 sequence (Q8NET8 1-790): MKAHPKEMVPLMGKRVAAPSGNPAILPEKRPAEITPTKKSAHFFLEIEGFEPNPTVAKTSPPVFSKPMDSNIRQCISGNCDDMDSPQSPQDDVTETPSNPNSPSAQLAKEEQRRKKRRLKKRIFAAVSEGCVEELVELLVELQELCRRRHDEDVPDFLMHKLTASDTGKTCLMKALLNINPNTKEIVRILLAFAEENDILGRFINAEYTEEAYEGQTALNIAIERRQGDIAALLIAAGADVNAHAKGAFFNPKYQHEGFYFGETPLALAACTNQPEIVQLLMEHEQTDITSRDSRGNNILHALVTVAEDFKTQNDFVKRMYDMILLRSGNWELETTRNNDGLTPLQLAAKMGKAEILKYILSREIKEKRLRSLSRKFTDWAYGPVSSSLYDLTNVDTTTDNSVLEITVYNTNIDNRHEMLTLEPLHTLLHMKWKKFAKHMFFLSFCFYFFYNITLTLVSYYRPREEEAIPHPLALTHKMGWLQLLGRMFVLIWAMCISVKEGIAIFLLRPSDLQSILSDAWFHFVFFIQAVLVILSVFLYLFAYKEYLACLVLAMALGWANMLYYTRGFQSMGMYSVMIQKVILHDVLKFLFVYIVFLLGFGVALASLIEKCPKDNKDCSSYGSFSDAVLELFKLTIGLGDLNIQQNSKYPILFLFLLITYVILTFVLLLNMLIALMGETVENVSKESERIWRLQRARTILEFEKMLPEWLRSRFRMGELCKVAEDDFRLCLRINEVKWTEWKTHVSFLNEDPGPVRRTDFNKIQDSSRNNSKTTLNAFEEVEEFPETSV
Assay: 45Calcium uptake assay: inhibition of 2-APB induced cellular uptake of radioactive calcium
Type: cell-based
Conditions: 2-APB 500 μM; for Percentage inhibition at 1.0 μM / inhibition at 1 µM: compound at 1.0 μM; for Percentage inhibition at 10.0 μM / inhibition at 10 µM: compound at 10.0 μM; for inhibition at 1 µM: read-out: Percentage inhibition at 1.0 μM; for inhibition at 10 µM: read-out: Percentage inhibition at 10.0 μM; for IC50: class symbols
Description: Certain illustrative compounds within the scope of the present invention are screened for TRPV3 activity according to a modified procedure described in (a) Tóth, A. et al. Life Sciences 2003, 73, 487-498. (b) McNamara C, R. et al. Proc. Natl. Acad. Sci. U.S.A., 2007, 104, 13525-13530. The screening of the compounds may be carried out by other methods and procedures known to persons skilled in the art.
Screening for TRPV3 Antagonist Using the ^45Calcium Uptake Assay
The inhibition of TRPV3 receptor activation was followed as inhibition of 2-aminoethxydiphenylborate (2-APB) induced cellular uptake of radioactive calcium. Test compounds were dissolved in dimethyl sulfoxide (DMSO) to prepare 20 mM stock solution and then diluted using plain medium with DMEM/F-12 containing 1.8 mM CaCl2 to get desired concentration. Final concentration of DMSO in the reaction was 0.5% (v/v). Human TRPV3 expressing CHO cells were grown in DMEM/F-12 medium with 10% FBS, 1% penicillin-streptomycin solution, 400 μg/mL of G-418. Cells were seeded 24 h prior to the assay in 96 well plates so as to get ˜50,000 cells per well on the day of experiment. Cells were treated with test compounds for 10 minutes followed by addition of 2-APB at a final concentration of 500 μM and 5 μCi/mL ^45Ca^+2 for 4 minutes. Cells were washed and lysed using buffer containing 1% Triton X-100, 0.1% deoxycholate and 0.1% SDS. Radioactivity in the lysate was measured in Packardt Top count after addition of liquid scintillant. Concentration response curves were plotted as a % of maximal response obtained in the absence of test antagonist. IC50 value was calculated from concentration response curve by nonlinear regression analysis using GraphPad PRISM software.
Percentage inhibition at concentrations of 1.0 μM and 10.0 μM are given in the table along with IC50 (nM) details for selected examples.

inhibition at 1 µM	inhibition at 10 µM	IC50	Compound	Percentage inhibition at 1.0 μM	Percentage inhibition at 10.0 μM
36.2%	91.7%	–	COc1cccc(/C=C/c2nc3sccn3c2C(=O)N2CCN(c3ccc(C(F)(F)F)cn3)CC2)c1OCC1CC1 [Example 4, 6-[(E)-2-(2-Cyclopropylmethoxy-3-methoxyphenyl)vinyl]imidazo[2,1-b][1,3]thiazol-5-yl-4-(5-trifluoromethyl-2-pyridyl)piperazinomethanone]	–	–
5.32%	38.2%	–	COc1cccc(/C=C/c2nc3sccn3c2C(=O)N2CCN(c3ccc(C#N)cn3)CC2)c1OCC1CC1 [Example 5]	–	–
95.5%	99.5%	< 100 nM	COc1cccc(/C=C/c2nc3sccn3c2C(=O)Nc2nc(C(F)(F)F)cs2)c1OCC(C)(C)C [Example 7, 6-{(E)-2-[2-(2,2-Dimethylpropoxy)-3-methoxyphenyl]vinyl}-N-[4-(trifluoromethyl)-1,3-thiazol-2-yl]imidazo[2,1-b][1,3]thiazole-5-carboxamide]	–	–
88.1%	91.1%	< 100 nM	COc1cccc(/C=C/c2nc3sccn3c2C(=O)Nc2nc(C(C)(C)C)cs2)c1OCC(C)(C)C [Example 8, 6-{(E)-2-[2-(2,2-Dimethylpropoxy)-3-methoxyphenyl]vinyl}-N-[4-(tert-butyl)-1,3-thiazol-2-yl]imidazo[2,1-b][1,3]thiazole-5-carboxamide]	–	–
69.3%	80.6%	250 to 1000 nM	COc1cccc(/C=C/c2nc3sccn3c2C(=O)Nc2nc(C)cs2)c1OCC(C)(C)C [Example 10, 6-{(E)-2-[2-(2,2-Dimethylpropoxy)-3-methoxyphenyl]vinyl}-N-(4-methyl-1,3-thiazol-2-yl)imidazo[2,1-b][1,3]thiazole-5-carboxamide]	–	–
75.1%	84.8%	< 100 nM	CCN(C(=O)c1c(/C=C/c2cccc(OC)c2OCC(C)(C)C)nc2sccn12)c1nc(C(F)(F)F)cs1 [Example 11, N-Ethyl-6-{(E)-2-[2-(2,2-dimethylpropoxy)-3-methoxyphenyl]vinyl}-N-[4-(trifluoro-methyl)-1,3-thiazol-2-yl]imidazo[2,1-b][1,3]thiazole-5-carboxamide]	–	–
13.9%	4.88%	–	O=C(Nc1nc(C(F)(F)F)cs1)c1c(/C=C/c2cccc(O)c2O)nc2sccn12 [Example 19, 6-[(E)-2-(2,3-Dihydroxyphenyl)vinyl]-N-[4-(trifluoromethyl)-1,3-thiazol-2-yl]imidazo[2,1-b][1,3]thiazole-5-carboxamide]	–	–
53.3%	81.7%	–	CC(C)c1csc(NC(=O)c2c(/C=C/c3cccc(OC(F)F)c3OCC(C)(C)C)nc3sccn23)n1 [Example 20, 6-{(E)-2-[2-(2,2-Dimethylpropoxy)-3-(difluoromethoxy)phenyl]vinyl}-N-(4-isopropyl-1,3-thiazol-2-yl)imidazo[2,1-b][1,3]thiazole-5-carboxamide]	–	–

More lines, now with the values behind:

Compound	inhibition at 1 µM	inhibition at 10 µM	IC50	Percentage inhibition at 1.0 μM	Percentage inhibition at 10.0 μM
2-{(E)-2-[3-(Difluoromethoxy)-2-(2,2-dimethylpropoxy)phenyl]vinyl}-N-[4-(trifluoro-methyl)-1,3-thiazol-2-yl]imidazo[1,2-c]pyridine-3-carboxamide [Example 38]	–	–	–	87.67%	97.11%
COc1cccc(/C=C/c2nc3sccn3c2C(=O)Nc2ccc(OC(F)(F)F)cc2)c1OCC1CC1 [Example 1, 6-[(E)-2-(2-Cyclopropylmethoxy-3-methoxyphenyl)vinyl]-N-[4-(trifluoromethoxy)phenyl]imidazo[2,1-b][1,3]thiazole-5-carboxamide]	9.3%	38.6%	–	–	–
COc1cccc(/C=C/c2nc3sccn3c2C(=O)Nc2nc(C(F)(F)F)cs2)c1OCC1CC1 [Example 2, 6-[(E)-2-(2-Cyclopropylmethoxy-3-methoxyphenyl)vinyl]-N-[4-(trifluoromethyl)-1,3-thiazol-2-yl]imidazo[2,1-b][1,3]thiazole-5-carboxamide]	73.2%	97.6%	250 to 1000 nM	–	–
COc1cccc(/C=C/c2nc3sccn3c2C(=O)N2CCCc3ccccc32)c1OCC1CC1 [Example 3, 1-({6-[(E)-2-(2-Cyclopropylmethoxy-3-methoxyphenyl)vinyl]imidazo[2,1-b][1,3]thiazol-5-yl}carbonyl)-1,2,3,4-tetrahydroquinoline]	34.6%	90.6%	–	–	–
COc1cccc(/C=C/c2nc3sccn3c2C(=O)Nc2nc(C(F)(F)F)cs2)c1OCC(C)C [Example 6, 6-{(E)-2-[2-(Isobutoxy)-3-methoxyphenyl]vinyl}-N-[4-(trifluoromethyl)-1,3-thiazol-2-yl]imidazo[2,1-b][1,3]thiazole-5-carboxamide]	93%	98.8%	250 to 1000 nM	–	–
COc1cccc(/C=C/c2nc3sccn3c2C(=O)Nc2nnc(C(F)(F)F)s2)c1OCC(C)(C)C [Example 12, 6-{(E)-2-[2-(2,2-Dimethylpropoxy)-3-methoxyphenyl]vinyl}-N-[5-(trifluoromethyl)-1,3,4-thiadiazol-2-yl]imidazo[2,1-b][1,3]thiazole-5-carboxamide]	13.3%	82.8%	–	–	–
COc1cccc(/C=C/c2nc3sccn3c2C(=O)Nc2nc(C(F)(F)F)co2)c1OCC(C)(C)C [Example 13, 6-{[(E)-2-(2,2-Dimethylpropoxy)-3-methoxyphenyl]vinyl}-N-[4-(trifluoromethyl)-1,3-oxazol-2-yl]imidazo[2,1-b][1,3]thiazole-5-carboxamide]	–	–	–	10.75%	31.51%
COc1cccc(/C=C/c2nc3sccn3c2C(=O)N2CCn3c(nnc3C(F)(F)F)C2)c1OCC(C)(C)C [Example 14]	–	–	–	10.33%	15.45%
COc1cccc(/C=C/c2nc3sccn3c2C(=O)Nc2nc(-c3ccc(C#N)cc3)cs2)c1OCC(C)(C)C [Example 15, N-[4-(4-Cyanophenyl)-1,3-thiazol-2-yl]-6-{(E)-2-[2-(2,2-dimethylpropoxy)-3-methoxyphenyl]vinyl}imidazo[2,1-b][1,3]thiazole-5-carboxamide]	20.7%	26.6%	–	–	–
COc1cccc(/C=C/c2nc3sccn3c2C(=O)Nc2nc(C(F)(F)F)cs2)c1OC1CCCC1 [Example 16, 6-[(E)-2-(2-Cyclopentyloxy-3-methoxyphenyl)vinyl]-N-[4-(trifluoromethyl)-1,3-thiazol-2-yl]imidazo[2,1-b][1,3]thiazole-5-carboxamide]	81.7%	93.1%	250 to 1000 nM	–	–
O=C(Nc1nc(C(F)(F)F)cs1)c1c(/C=C/c2cccc(OC(F)F)c2OC2CCCC2)nc2sccn12 [Example 17, 6-{(E)-2-[2-Cyclopentyloxy-3-(difluoromethoxy)phenyl]vinyl}-N-[4-(trifluoromethyl)-1,3-thiazol-2-yl]imidazo[2,1-b][1,3]thiazole-5-carboxamide]	85.3%	94.6%	250 to 1000 nM	–	–
CC(C)(C)COc1c(/C=C/c2nc3sccn3c2C(=O)Nc2nc(C(F)(F)F)cs2)cccc1OC(F)F [Example 18, 6-{(E)-2-[3-Difluoromethoxy-2-(2,2-dimethylpropoxy)phenyl]vinyl}-N-[4-(trifluoro-methyl)-1,3-thiazol-2-yl]imidazo[2,1-b][1,3]thiazole-5-carboxamide]	96.9%	98.2%	< 100 nM	–	–
